From ChEMBL document CHEMBL5291721, “A preclinical secondary pharmacology resource illuminates target-adverse drug reaction associations of marketed drugs” (Nat Commun, 2023)

Experiments:
[1] = target: T1, Muscarinic acetylcholine receptor M2 (Homo sapiens, UniProt P08172)
T1 sequence (P08172 whole entry): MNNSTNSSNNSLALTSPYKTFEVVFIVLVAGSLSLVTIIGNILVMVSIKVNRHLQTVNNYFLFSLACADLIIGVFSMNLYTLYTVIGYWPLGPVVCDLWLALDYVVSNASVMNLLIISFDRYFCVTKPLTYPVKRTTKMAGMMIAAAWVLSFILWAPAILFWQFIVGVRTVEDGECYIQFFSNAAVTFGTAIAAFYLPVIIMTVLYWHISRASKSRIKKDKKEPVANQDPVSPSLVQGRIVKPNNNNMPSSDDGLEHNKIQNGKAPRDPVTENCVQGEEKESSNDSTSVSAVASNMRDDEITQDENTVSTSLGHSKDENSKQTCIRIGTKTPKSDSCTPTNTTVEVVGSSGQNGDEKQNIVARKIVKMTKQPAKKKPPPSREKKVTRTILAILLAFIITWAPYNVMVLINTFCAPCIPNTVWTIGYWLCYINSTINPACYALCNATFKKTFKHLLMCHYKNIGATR

[2] = target: T2, Progesterone receptor (Homo sapiens, UniProt P06401)
T2 sequence (P06401 whole entry): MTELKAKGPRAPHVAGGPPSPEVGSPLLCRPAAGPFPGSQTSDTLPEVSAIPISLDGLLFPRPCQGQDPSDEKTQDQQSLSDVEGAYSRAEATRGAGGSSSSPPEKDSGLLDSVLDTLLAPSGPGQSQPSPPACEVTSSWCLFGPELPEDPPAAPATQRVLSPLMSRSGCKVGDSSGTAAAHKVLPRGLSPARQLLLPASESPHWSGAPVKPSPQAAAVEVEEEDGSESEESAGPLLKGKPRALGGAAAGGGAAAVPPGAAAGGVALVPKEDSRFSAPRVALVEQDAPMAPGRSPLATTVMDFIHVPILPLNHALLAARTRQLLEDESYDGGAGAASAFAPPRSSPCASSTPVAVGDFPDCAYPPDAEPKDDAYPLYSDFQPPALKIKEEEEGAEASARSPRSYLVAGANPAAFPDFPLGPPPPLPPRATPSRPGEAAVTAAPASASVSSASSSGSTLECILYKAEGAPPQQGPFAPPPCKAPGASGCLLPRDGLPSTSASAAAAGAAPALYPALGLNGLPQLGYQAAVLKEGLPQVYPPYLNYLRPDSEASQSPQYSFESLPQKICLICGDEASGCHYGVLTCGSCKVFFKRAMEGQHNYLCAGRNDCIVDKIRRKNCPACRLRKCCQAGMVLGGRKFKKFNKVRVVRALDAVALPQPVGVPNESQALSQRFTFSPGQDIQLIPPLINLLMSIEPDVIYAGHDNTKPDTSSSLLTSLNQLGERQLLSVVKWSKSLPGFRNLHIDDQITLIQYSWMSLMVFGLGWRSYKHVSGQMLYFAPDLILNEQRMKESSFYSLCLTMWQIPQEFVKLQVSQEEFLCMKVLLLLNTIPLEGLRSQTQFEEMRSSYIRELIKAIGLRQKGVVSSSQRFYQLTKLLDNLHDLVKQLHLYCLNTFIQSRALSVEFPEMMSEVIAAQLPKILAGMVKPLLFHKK

[3] = target: Voltage-gated inwardly rectifying potassium channel KCNH2 (Homo sapiens, UniProt Q12809); assay type: functional; conditions: read-out: AC50
[4] = target: T3, 5-hydroxytryptamine receptor 1A (Homo sapiens, UniProt P08908)
T3 sequence (P08908 whole entry): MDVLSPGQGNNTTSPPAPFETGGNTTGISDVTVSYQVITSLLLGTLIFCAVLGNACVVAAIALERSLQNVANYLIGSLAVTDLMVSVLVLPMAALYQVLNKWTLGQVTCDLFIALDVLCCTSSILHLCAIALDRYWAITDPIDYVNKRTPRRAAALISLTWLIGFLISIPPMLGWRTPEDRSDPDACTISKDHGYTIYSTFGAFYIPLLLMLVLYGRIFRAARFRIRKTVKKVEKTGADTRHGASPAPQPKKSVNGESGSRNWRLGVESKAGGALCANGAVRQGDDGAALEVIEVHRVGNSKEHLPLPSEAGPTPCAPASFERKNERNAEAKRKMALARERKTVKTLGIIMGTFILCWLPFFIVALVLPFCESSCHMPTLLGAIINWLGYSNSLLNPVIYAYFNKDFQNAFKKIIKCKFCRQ

[5] = target: T4, Amine oxidase [flavin-containing] A (Homo sapiens, UniProt P21397); assay type: functional
T4 sequence (P21397 whole entry): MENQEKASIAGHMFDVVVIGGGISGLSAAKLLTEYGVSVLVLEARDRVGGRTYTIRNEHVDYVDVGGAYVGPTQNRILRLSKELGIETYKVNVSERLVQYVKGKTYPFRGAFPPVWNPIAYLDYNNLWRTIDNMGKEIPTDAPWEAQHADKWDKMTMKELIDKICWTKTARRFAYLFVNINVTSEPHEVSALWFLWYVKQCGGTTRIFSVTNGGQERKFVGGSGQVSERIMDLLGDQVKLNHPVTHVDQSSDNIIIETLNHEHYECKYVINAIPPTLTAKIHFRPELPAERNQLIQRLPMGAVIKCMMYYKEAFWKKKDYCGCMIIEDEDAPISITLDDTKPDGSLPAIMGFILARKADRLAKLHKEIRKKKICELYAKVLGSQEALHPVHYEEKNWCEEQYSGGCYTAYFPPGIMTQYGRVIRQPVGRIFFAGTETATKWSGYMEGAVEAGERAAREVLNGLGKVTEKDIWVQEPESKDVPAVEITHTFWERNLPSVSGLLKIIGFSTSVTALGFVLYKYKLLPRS

[6] = target: T5, Estrogen receptor (Homo sapiens, UniProt P03372)
T5 sequence (P03372 whole entry): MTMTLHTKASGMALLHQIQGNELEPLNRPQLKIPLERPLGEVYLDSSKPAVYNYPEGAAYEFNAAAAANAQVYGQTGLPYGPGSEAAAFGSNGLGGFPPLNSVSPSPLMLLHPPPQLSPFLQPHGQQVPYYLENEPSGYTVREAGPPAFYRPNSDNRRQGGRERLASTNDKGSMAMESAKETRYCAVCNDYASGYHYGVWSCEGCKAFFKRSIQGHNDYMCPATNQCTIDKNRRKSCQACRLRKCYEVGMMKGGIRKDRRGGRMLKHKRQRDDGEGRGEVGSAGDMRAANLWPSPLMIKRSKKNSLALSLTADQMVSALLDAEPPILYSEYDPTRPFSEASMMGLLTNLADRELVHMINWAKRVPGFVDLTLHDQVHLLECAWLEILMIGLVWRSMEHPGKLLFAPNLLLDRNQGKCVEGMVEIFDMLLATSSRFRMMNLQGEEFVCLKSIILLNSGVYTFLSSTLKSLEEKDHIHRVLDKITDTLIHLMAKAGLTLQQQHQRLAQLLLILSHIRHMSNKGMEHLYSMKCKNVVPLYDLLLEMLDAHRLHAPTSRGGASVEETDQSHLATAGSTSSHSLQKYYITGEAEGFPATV
Further: assay procedure not described here.

Voltage-gated inwardly rectifying potassium channel KCNH2, sequence (Q12809 whole entry): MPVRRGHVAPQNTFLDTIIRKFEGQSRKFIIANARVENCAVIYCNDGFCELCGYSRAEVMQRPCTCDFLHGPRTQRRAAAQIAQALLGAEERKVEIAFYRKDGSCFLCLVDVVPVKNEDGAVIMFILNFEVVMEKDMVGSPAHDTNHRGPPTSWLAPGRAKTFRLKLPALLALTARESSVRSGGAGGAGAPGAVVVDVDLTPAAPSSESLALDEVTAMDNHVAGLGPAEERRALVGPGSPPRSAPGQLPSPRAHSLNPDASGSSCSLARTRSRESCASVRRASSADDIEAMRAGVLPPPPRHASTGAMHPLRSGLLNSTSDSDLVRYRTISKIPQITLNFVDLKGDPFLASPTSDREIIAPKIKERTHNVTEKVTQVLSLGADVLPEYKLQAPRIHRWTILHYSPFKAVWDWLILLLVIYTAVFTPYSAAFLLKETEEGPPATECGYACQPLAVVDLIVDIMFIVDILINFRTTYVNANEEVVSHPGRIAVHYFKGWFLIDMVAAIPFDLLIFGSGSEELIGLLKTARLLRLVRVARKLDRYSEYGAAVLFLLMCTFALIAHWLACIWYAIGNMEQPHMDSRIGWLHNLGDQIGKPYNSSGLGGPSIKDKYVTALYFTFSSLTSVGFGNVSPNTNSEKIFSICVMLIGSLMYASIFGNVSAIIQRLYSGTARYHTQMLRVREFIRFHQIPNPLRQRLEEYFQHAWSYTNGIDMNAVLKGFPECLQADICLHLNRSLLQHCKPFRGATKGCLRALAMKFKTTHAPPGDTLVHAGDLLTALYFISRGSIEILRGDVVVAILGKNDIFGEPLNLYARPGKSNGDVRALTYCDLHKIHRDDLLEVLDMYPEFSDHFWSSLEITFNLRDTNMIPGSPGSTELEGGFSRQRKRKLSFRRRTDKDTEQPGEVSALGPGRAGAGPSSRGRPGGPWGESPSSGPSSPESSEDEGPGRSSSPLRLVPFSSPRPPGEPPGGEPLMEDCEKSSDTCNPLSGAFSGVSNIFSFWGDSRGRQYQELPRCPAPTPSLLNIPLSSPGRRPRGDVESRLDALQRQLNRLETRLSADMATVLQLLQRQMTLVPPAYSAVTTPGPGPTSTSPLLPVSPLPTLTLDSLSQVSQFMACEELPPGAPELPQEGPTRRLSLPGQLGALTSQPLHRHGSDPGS

Structure (SMILES) | AC50 [1] | AC50 [2] | AC50 [3] | AC50 [4] | AC50 [5] | AC50 [6]
CCOc1ccc(Cc2nccc3cc(OCC)c(OCC)cc23)cc1OCC [ETHAVERINE] | > 30 µM | > 30 µM | 13 µM | > 30 µM | > 30 µM | > 30 µM
CC(NCCC(c1ccccc1)c1ccccc1)c1ccccc1 (configuration not stated) [FENDILINE] | 6.17 µM | > 30 µM | 1.3 µM | 14.9 µM | > 30 µM | > 30 µM
CC(C)(Oc1ccc(C(=O)c2ccc(Cl)cc2)cc1)C(=O)O [FENOFIBRIC ACID] | > 30 µM | > 30 µM | > 30 µM | > 30 µM | > 30 µM | > 30 µM
COC(=O)Nc1nc2cc(C(=O)c3ccc(F)cc3)ccc2[nH]1 [FLUBENDAZOLE] | > 30 µM | > 30 µM | > 30 µM | > 30 µM | > 30 µM | > 30 µM
CC(C)Cc1ccc(C(C)C(=O)OCc2ccccn2)cc1 (configuration not stated) [IBUPROFEN PICONOL] | > 30 µM | 19.1 µM | > 30 µM | > 30 µM | > 30 µM | > 30 µM
CN1CCc2c(c3ccccc3n2Cc2ccccc2)C1 [MEBHYDROLIN] | 0.268 µM | > 30 µM | 1 µM | 1.04 µM | > 30 µM | > 30 µM
Cc1ccc(Cl)c(Nc2ccccc2C(=O)O)c1Cl [MECLOFENAMIC ACID] | > 30 µM | > 30 µM | > 30 µM | > 30 µM | > 30 µM | > 30 µM
CC(O)(CC(=O)O)CC(=O)O [MEGLUTOL] | > 30 µM | > 30 µM | > 30 µM | > 30 µM | > 30 µM | > 30 µM
CC(C)=CCC/C(C)=C/CC/C(C)=C/CC/C(C)=C/CC1=C(C)C(=O)c2ccccc2C1=O [MENATETRENONE] | > 30 µM | 13.5 µM | > 30 µM | 22.5 µM | > 30 µM | > 30 µM
CN1CCCC(CC2c3ccccc3Sc3ccccc32)C1 (configuration not stated) [METHIXENE] | 0.0054 µM | > 30 µM | 3.1 µM | 1.9 µM | > 30 µM | > 30 µM
Oc1ccc(OCc2ccccc2)cc1 [MONOBENZONE] | > 30 µM | > 30 µM | > 30 µM | > 30 µM | > 30 µM | > 30 µM
NC(=O)N/N=C/c1ccc([N+](=O)[O-])o1 [NITROFURAZONE] | > 30 µM | > 30 µM | > 30 µM | > 30 µM | > 30 µM | > 30 µM
C[C@@H]1O[C@@H](O[C@H]2C[C@@H](O)[C@]3(CO)[C@H]4[C@H](O)C[C@]5(C)[C@@H](C6=CC(=O)OC6)CC[C@]5(O)[C@@H]4CC[C@]3(O)C2)[C@H](O)[C@H](O)[C@H]1O [OUABAIN] | > 30 µM | > 30 µM | > 30 µM | > 30 µM | > 30 µM | > 30 µM
CC(C)N1CCOC(c2cccc(C(F)(F)F)c2)C1 (configuration not stated) [OXAFLOZANE] | 23.5 µM | > 30 µM | > 30 µM | 0.513 µM | > 30 µM | > 30 µM
COc1ccc(C(=O)c2ccccc2)c(O)c1 [OXYBENZONE] | > 30 µM | 25.7 µM | > 30 µM | > 30 µM | > 30 µM | > 30 µM
O=C1Nc2ccccc2C1(c1ccc(O)cc1)c1ccc(O)cc1 [OXYPHENISATINE] | 11.9 µM | > 30 µM | 10.1 µM | > 30 µM | > 30 µM | > 30 µM
CN1C(C(=O)Nc2ccccn2)=C(OC(=O)/C=C/c2ccccc2)c2ccccc2S1(=O)=O [PIROXICAM CINNAMATE] | > 30 µM | > 30 µM | > 30 µM | 13.4 µM | > 10 µM | > 30 µM
Cc1c(C(C)C)c(=O)n(-c2ccccc2)n1C [PROPYPHENAZONE] | > 30 µM | > 30 µM | > 30 µM | > 30 µM | > 30 µM | > 30 µM
Cc1cn(-c2cc(NC(=O)c3ccc(C)c(Nc4nccc(-c5cnccn5)n4)c3)cc(C(F)(F)F)c2)cn1 [RADOTINIB] | > 30 µM | > 30 µM | > 30 µM | > 30 µM | > 30 µM | > 30 µM
CO[C@H]1/C=C/O[C@@]2(C)Oc3c(C)c(O)c4c(c3C2=O)C2=NC3(CCN(CC(C)C)CC3)NC2=C(NC(=O)/C(C)=C\C=C\[C@H](C)[C@H](O)[C@@H](C)[C@@H](O)[C@@H](C)[C@H](OC(C)=O)[C@@H]1C)C4=O [RIFABUTIN] | > 30 µM | > 30 µM | > 30 µM | > 30 µM | > 30 µM | > 30 µM
COC(=O)N(C)c1c(N)nc(-c2nn(Cc3ccccc3F)c3ncccc23)nc1N [RIOCIGUAT] | > 30 µM | > 30 µM | 5 µM | > 30 µM | > 30 µM | > 30 µM
C[C@@H]1CN(c2c(F)c(N)c3c(=O)c(C(=O)O)cn(C4CC4)c3c2F)C[C@H](C)N1 [SPARFLOXACIN] | > 30 µM | > 30 µM | 6.8 µM | > 30 µM | > 30 µM | > 30 µM
